In paper PMC10114720:

Experiments:
[1] = PDMS sheets cleaned by Soxhlet with ethyl acetate; batch shaking method with a mixture of all chemicals at several PDMS-mass to water-volume ratios and spiked levels; vials shaken on an orbital shaker at room temperature in the dark, sampled at two equilibration times; PDMS extracts and water quantified by LC-HRMS (Orbitrap); D from the slope of C_PDMS on C_w or their ratio; value is the mean over that pH's experiments (individual experiments in the SI's concentrations table), sd is the table's stdev; conditions: PDMS (polydimethylsiloxane silicone sheet), phosphate buffer at three target pH values (the paper's methods)
[2] = neutral chemical: log K is the mean of log D over all measurements at the three pH values (D shown independent of pH, paired t-test); sd is the table's stddev. PDMS sheets cleaned by Soxhlet with ethyl acetate; batch shaking method with a mixture of all chemicals at several PDMS-mass to water-volume ratios and spiked levels; vials shaken on an orbital shaker at room temperature in the dark, sampled at two equilibration times; PDMS extracts and water quantified by LC-HRMS (Orbitrap); D from the slope of C_PDMS on C_w or their ratio; conditions: PDMS (polydimethylsiloxane silicone sheet); phosphate buffer at three target pH values (the paper's methods)

With `CN(C)C(=O)Nc1ccc(Cl)c(Cl)c1` the “log D PDMS/w (apparent distribution ratio at the stated pH)” value ([1]; pH 3) was 1.406 log units; D and K as the pape, the “log D PDMS/w (apparent distribution ratio at the stated pH)” value ([1]; pH 7.4) was 1.371 log units; D and K as the pape and the “log D PDMS/w (apparent distribution ratio at the stated pH)” value ([1]; pH 11.5) was 1.462 log units; D and K as the pape. For the same compound, the “log K PDMS/w (neutral species)” value [2] was 1.409 log units; D and K as the pape.

For `N#Cc1nn(-c2c(Cl)cc(C(F)(F)F)cc2Cl)c(N)c1SC(F)(F)F`, the “log D PDMS/w (apparent distribution ratio at the stated pH)” value ([1]; pH 3) was 2.477 log units; D and K as the pape, the “log D PDMS/w (apparent distribution ratio at the stated pH)” value ([1]; pH 7.4) was 2.459 log units; D and K as the pape and the “log D PDMS/w (apparent distribution ratio at the stated pH)” value ([1]; pH 11.5) was 2.375 log units; D and K as the pape. The “log K PDMS/w (neutral species)” value [2] was 2.436 log units; D and K as the pape.

With `N#Cc1nn(-c2c(Cl)cc(C(F)(F)F)cc2Cl)c(N)c1C(F)(F)F` the “log D PDMS/w (apparent distribution ratio at the stated pH)” value ([1]; pH 3) was 1.946 log units; D and K as the pape, the “log D PDMS/w (apparent distribution ratio at the stated pH)” value ([1]; pH 7.4) was 1.927 log units; D and K as the pape and the “log D PDMS/w (apparent distribution ratio at the stated pH)” value ([1]; pH 11.5) was 1.883 log units; D and K as the pape. For the same compound, the “log K PDMS/w (neutral species)” value [2] was 1.919 log units; D and K as the pape.

For `O=C1NCCN1Cc1ccc(Cl)nc1`, the “log D PDMS/w (apparent distribution ratio at the stated pH)” value ([1]; pH 7.4) was 1.277 log units; D and K as the pape, the “log D PDMS/w (apparent distribution ratio at the stated pH)” value ([1]; pH 11.5) was 1.451 log units; D and K as the pape and the “log K PDMS/w (neutral species)” value [2] was 1.372 log units; D and K as the pape.

For `CCCN(CCOc1c(Cl)cc(Cl)cc1Cl)C(=O)NC=O`, the “log D PDMS/w (apparent distribution ratio at the stated pH)” value ([1]; pH 3) was 2.492 log units; D and K as the pape, the “log D PDMS/w (apparent distribution ratio at the stated pH)” value ([1]; pH 7.4) was 2.482 log units; D and K as the pape and the “log K PDMS/w (neutral species)” value [2] was 2.487 log units; D and K as the pape.

For `CCCCCCCCCCCC(=O)N(CCO)CCO`, the “log D PDMS/w (apparent distribution ratio at the stated pH)” value ([1]; pH 3) was 2.742 log units; D and K as the pape, the “log D PDMS/w (apparent distribution ratio at the stated pH)” value ([1]; pH 7.4) was 2.767 log units; D and K as the pape and the “log D PDMS/w (apparent distribution ratio at the stated pH)” value ([1]; pH 11.5) was 2.749 log units; D and K as the pape. For the same compound, the “log K PDMS/w (neutral species)” value [2] was 2.753 log units; D and K as the pape.

For `Cc1c(C=O)c(=O)n(-c2ccccc2)n1C`, the “log D PDMS/w (apparent distribution ratio at the stated pH)” value ([1]; pH 3) was -0.2614 log units; D and K as the pape, the “log D PDMS/w (apparent distribution ratio at the stated pH)” value ([1]; pH 7.4) was -0.1813 log units; D and K as the pape and the “log D PDMS/w (apparent distribution ratio at the stated pH)” value ([1]; pH 11.5) was -0.1629 log units; D and K as the pape. For the same compound, the “log K PDMS/w (neutral species)” value [2] was -0.2009 log units; D and K as the pape.

With `CC(C)(C#N)c1cc(Cn2cncn2)cc(C(C)(C)C#N)c1` the “log D PDMS/w (apparent distribution ratio at the stated pH)” value ([1]; pH 3) was 2.047 log units; D and K as the pape, the “log D PDMS/w (apparent distribution ratio at the stated pH)” value ([1]; pH 7.4) was 1.994 log units; D and K as the pape and the “log D PDMS/w (apparent distribution ratio at the stated pH)” value ([1]; pH 11.5) was 2.025 log units; D and K as the pape. The “log K PDMS/w (neutral species)” value [2] was 2.022 log units; D and K as the pape.

For `CCCCOCCOCCOCc1cc2c(cc1CCC)OCO2`, the “log D PDMS/w (apparent distribution ratio at the stated pH)” value ([1]; pH 3) was 3.728 log units; D and K as the pape, the “log D PDMS/w (apparent distribution ratio at the stated pH)” value ([1]; pH 7.4) was 3.685 log units; D and K as the pape and the “log D PDMS/w (apparent distribution ratio at the stated pH)” value ([1]; pH 11.5) was 3.574 log units; D and K as the pape. The “log K PDMS/w (neutral species)” value [2] was 3.661 log units; D and K as the pape.

For `CC=CC(=O)N(CC)c1ccccc1C` (mixture of isomers), the “log D PDMS/w (apparent distribution ratio at the stated pH)” value ([1]; pH 3) was 2.104 log units; D and K as the pape, the “log D PDMS/w (apparent distribution ratio at the stated pH)” value ([1]; pH 7.4) was 2.038 log units; D and K as the pape and the “log D PDMS/w (apparent distribution ratio at the stated pH)” value ([1]; pH 11.5) was 2.025 log units; D and K as the pape. The “log K PDMS/w (neutral species)” value [2] was 2.056 log units; D and K as the pape.

In the case of `CC(C)Nc1nc(N)nc(Cl)n1`, the “log D PDMS/w (apparent distribution ratio at the stated pH)” value ([1]; pH 3) is reported as 0.418 log units; D and K as the pape, the “log D PDMS/w (apparent distribution ratio at the stated pH)” value ([1]; pH 7.4) is reported as 0.4125 log units; D and K as the pape and the “log D PDMS/w (apparent distribution ratio at the stated pH)” value ([1]; pH 11.5) is reported as 0.411 log units; D and K as the pape. The “log K PDMS/w (neutral species)” value [2] was 0.4139 log units; D and K as the pape.

In the case of `CNC(=O)/C(=N/OC)c1ccccc1COc1cc(C)ccc1C`, the “log D PDMS/w (apparent distribution ratio at the stated pH)” value ([1]; pH 3) is reported as 2.432 log units; D and K as the pape, the “log D PDMS/w (apparent distribution ratio at the stated pH)” value ([1]; pH 7.4) is reported as 2.361 log units; D and K as the pape and the “log D PDMS/w (apparent distribution ratio at the stated pH)” value ([1]; pH 11.5) is reported as 2.397 log units; D and K as the pape. For the same compound, the “log K PDMS/w (neutral species)” value [2] was 2.396 log units; D and K as the pape.

For `CC(C)OC(=O)C(C)(C)Oc1ccc(C(=O)c2ccc(Cl)cc2)cc1`, the “log D PDMS/w (apparent distribution ratio at the stated pH)” value ([1]; pH 3) was 4.526 log units; D and K as the pape, the “log D PDMS/w (apparent distribution ratio at the stated pH)” value ([1]; pH 7.4) was 4.273 log units; D and K as the pape and the “log D PDMS/w (apparent distribution ratio at the stated pH)” value ([1]; pH 11.5) was 4.425 log units; D and K as the pape. The “log K PDMS/w (neutral species)” value [2] was 4.415 log units; D and K as the pape.

For `CN(C)c1ccc(C(=O)c2ccc(N(C)C)cc2)cc1`, the “log D PDMS/w (apparent distribution ratio at the stated pH)” value ([1]; pH 3) was 2.372 log units; D and K as the pape, the “log D PDMS/w (apparent distribution ratio at the stated pH)” value ([1]; pH 7.4) was 2.263 log units; D and K as the pape and the “log D PDMS/w (apparent distribution ratio at the stated pH)” value ([1]; pH 11.5) was 1.409 log units; D and K as the pape. The “log K PDMS/w (neutral species)” value [2] was 2.057 log units; D and K as the pape.

In the case of `CC(C)(C)Nc1nc(N)nc(Cl)n1`, the “log D PDMS/w (apparent distribution ratio at the stated pH)” value ([1]; pH 3) is reported as 1.314 log units; D and K as the pape, the “log D PDMS/w (apparent distribution ratio at the stated pH)” value ([1]; pH 7.4) is reported as 1.264 log units; D and K as the pape and the “log D PDMS/w (apparent distribution ratio at the stated pH)” value ([1]; pH 11.5) is reported as 1.309 log units; D and K as the pape. For the same compound, the “log K PDMS/w (neutral species)” value [2] was 1.296 log units; D and K as the pape.

With `CCC(C(N)=O)(C(N)=O)c1ccccc1` the “log D PDMS/w (apparent distribution ratio at the stated pH)” value ([1]; pH 3) was -0.586 log units; D and K as the pape, the “log D PDMS/w (apparent distribution ratio at the stated pH)” value ([1]; pH 7.4) was -0.585 log units; D and K as the pape and the “log D PDMS/w (apparent distribution ratio at the stated pH)” value ([1]; pH 11.5) was -0.5033 log units; D and K as the pape. For the same compound, the “log K PDMS/w (neutral species)” value [2] was -0.5565 log units; D and K as the pape.

With `O=P(c1ccccc1)(c1ccccc1)c1ccccc1` the “log D PDMS/w (apparent distribution ratio at the stated pH)” value ([1]; pH 3) was 2.588 log units; D and K as the pape, the “log D PDMS/w (apparent distribution ratio at the stated pH)” value ([1]; pH 7.4) was 2.511 log units; D and K as the pape and the “log D PDMS/w (apparent distribution ratio at the stated pH)” value ([1]; pH 11.5) was 2.589 log units; D and K as the pape. The “log K PDMS/w (neutral species)” value [2] was 2.562 log units; D and K as the pape.

For `CC(C)(C)NC(=O)[C@H]1CC[C@H]2[C@@H]3CC[C@H]4NC(=O)C=C[C@]4(C)[C@H]3CC[C@]12C`, the “log D PDMS/w (apparent distribution ratio at the stated pH)” value ([1]; pH 3) was 2.64 log units; D and K as the pape, the “log D PDMS/w (apparent distribution ratio at the stated pH)” value ([1]; pH 7.4) was 2.691 log units; D and K as the pape and the “log D PDMS/w (apparent distribution ratio at the stated pH)” value ([1]; pH 11.5) was 2.582 log units; D and K as the pape. The “log K PDMS/w (neutral species)” value [2] was 2.638 log units; D and K as the pape.

For `COCCOCCOCCOCCOC`, the “log D PDMS/w (apparent distribution ratio at the stated pH)” value ([1]; pH 3) was 0.372 log units; D and K as the pape, the “log D PDMS/w (apparent distribution ratio at the stated pH)” value ([1]; pH 7.4) was 0.424 log units; D and K as the pape and the “log D PDMS/w (apparent distribution ratio at the stated pH)” value ([1]; pH 11.5) was 0.53 log units; D and K as the pape. For the same compound, the “log K PDMS/w (neutral species)” value [2] was 0.442 log units; D and K as the pape.

In the case of `O=C1CC2(CCCCC2)CN1`, the “log D PDMS/w (apparent distribution ratio at the stated pH)” value ([1]; pH 3) is reported as 1.311 log units; D and K as the pape, the “log D PDMS/w (apparent distribution ratio at the stated pH)” value ([1]; pH 7.4) is reported as 1.249 log units; D and K as the pape and the “log D PDMS/w (apparent distribution ratio at the stated pH)” value ([1]; pH 11.5) is reported as 1.271 log units; D and K as the pape. The “log K PDMS/w (neutral species)” value [2] was 1.277 log units; D and K as the pape.

For `CCOC(=O)C(C)(C)Oc1ccc(Cl)cc1`, the “log D PDMS/w (apparent distribution ratio at the stated pH)” value ([1]; pH 3) was 1.764 log units; D and K as the pape, the “log D PDMS/w (apparent distribution ratio at the stated pH)” value ([1]; pH 7.4) was 1.684 log units; D and K as the pape and the “log D PDMS/w (apparent distribution ratio at the stated pH)” value ([1]; pH 11.5) was 1.69 log units; D and K as the pape. The “log K PDMS/w (neutral species)” value [2] was 1.711 log units; D and K as the pape.

For `[O-][n+]1cccc2ccccc21`, the “log D PDMS/w (apparent distribution ratio at the stated pH)” value ([1]; pH 3) was 1.066 log units; D and K as the pape, the “log D PDMS/w (apparent distribution ratio at the stated pH)” value ([1]; pH 7.4) was 1.11 log units; D and K as the pape and the “log D PDMS/w (apparent distribution ratio at the stated pH)” value ([1]; pH 11.5) was 1.203 log units; D and K as the pape. For the same compound, the “log K PDMS/w (neutral species)” value [2] was 1.126 log units; D and K as the pape.

With `O=S(=O)(c1ccc(Cl)cc1)c1ccc(Cl)cc1` the “log D PDMS/w (apparent distribution ratio at the stated pH)” value ([1]; pH 3) was 2.579 log units; D and K as the pape, the “log D PDMS/w (apparent distribution ratio at the stated pH)” value ([1]; pH 7.4) was 2.592 log units; D and K as the pape and the “log D PDMS/w (apparent distribution ratio at the stated pH)” value ([1]; pH 11.5) was 2.517 log units; D and K as the pape. For the same compound, the “log K PDMS/w (neutral species)” value [2] was 2.563 log units; D and K as the pape.
